Measured values reported in patent US5840684A, “Glycopeptide antibiotic derivatives” (Eli Lilly and Company, priority 1995, dated 1998).
Converted amounts (≈) assume the structure as drawn.

Columns and labels:
[1] = tested on: Staphylococcus aureus S13E; format: cell-based
Experimental: (§1) The MIC's were determined using a standard broth micro-dilution assay.

[2] = tested on: Staphylococcus aureus SA1199B; format: cell-based
Experimental: as §1

[3] = tested on: Entercoccus faecium 180-1; experiment: broth micro-dilution MIC; format: cell-based
Experimental: as §1

Entercoccus faecium 276 = experiment: broth micro-dilution MIC; format: cell-based
Experimental: as §1

[4] = tested on: Staphylococcus aureus 446; experiment: broth micro-dilution MIC; format: cell-based
Experimental: as §1

[5] = tested on: Staphylococcus aureus SA1199A; experiment: broth micro-dilution MIC; format: cell-based
Experimental: as §1

[6] = tested on: Staphylococcus aureus SA1199; experiment: broth micro-dilution MIC; format: cell-based
Experimental: as §1

[7] = tested on: Staphylococcus aureus X400; experiment: broth micro-dilution MIC; format: cell-based
Experimental: as §1

[8] = tested on: Staphylococcus aureus X778; experiment: broth micro-dilution MIC; format: cell-based
Experimental: as §1

[9] = tested on: Streptococcus pyogenes C203; experiment: broth micro-dilution MIC; format: cell-based
Experimental: as §1

Entercoccus faecium 180 = experiment: broth micro-dilution MIC; format: cell-based; details: Entercoccus faecium 180
Experimental: (§2) The formula I compounds have in vitro and in vivo activity against Gram-positive pathogenic bacteria. The MIC's were determined using a standard broth micro-dilution assay.

Entercoccus faecium 2041 = experiment: broth micro-dilution MIC; format: cell-based; details: Entercoccus faecium 2041
Experimental: as §2

[10] = tested on: Enterococcus gallinarum 245; experiment: broth micro-dilution MIC; format: cell-based; details: Enterococcus gallinarum 245
Experimental: as §2

Escherichia coli EC14 = experiment: broth micro-dilution MIC; format: cell-based
Experimental: as §2

[11] = tested on: Haemophilus influenzae RD; experiment: broth micro-dilution MIC; format: cell-based; details: Haemophilus influenzae RD
Experimental: as §2

[12] = tested on: Staphylococcus haemolyticus 105; experiment: broth micro-dilution MIC; format: cell-based
Experimental: as §2

[13] = tested on: Staphylococcus haemolyticus 415; experiment: broth micro-dilution MIC; format: cell-based
Experimental: as §2

[14] = tested on: Streptococcus pneumoniae P1; experiment: broth micro-dilution MIC; format: cell-based
Experimental: as §2

Streptococcus pyogenes = experiment: mouse protection, experimentally-induced infection; format: in vivo; details: mice infected with Streptococcus pyogenes, two doses
Streptococcus pneumoniae = experiment: mouse protection, experimentally-induced infection; format: in vivo; details: mice infected with Streptococcus pneumoniae, two doses
[15] = tested on: vancomycin-resistant enterococci; experiment: broth micro-dilution, mean geometric MIC; format: cell-based, Enterococcus faecium and Enterococcus faecalis; details: enterococci, 24-hour incubation
[16] = tested on: vancomycin-susceptible enterococci; experiment: broth micro-dilution, mean geometric MIC; format: cell-based, Enterococcus faecium and Enterococcus faecalis; details: enterococci, 24-hour incubation
Pediococcus acidilacti = experiment: agar dilution MIC, lactic acid bacteria; format: cell-based; details: Pediococcus acidilacti (mean of 10), brain-heart infusion agar
Pediococcus pentosaceus = experiment: agar dilution MIC, lactic acid bacteria; format: cell-based; details: Pediococcus pentosaceus (mean of 2), brain-heart infusion agar
Leuconostoc lactis = experiment: agar dilution MIC, lactic acid bacteria; format: cell-based; details: Leuconostoc lactis (mean of 2), brain-heart infusion agar
[17] = tested on: Leuconostoc mesenteroides; experiment: agar dilution MIC, lactic acid bacteria; format: cell-based; details: Leuconostoc mesenteroides (mean of 4), brain-heart infusion agar
[18] = tested on: Leuconostoc pseudomesenteroides; experiment: agar dilution MIC, lactic acid bacteria; format: cell-based; details: brain-heart infusion agar
Leuconostoc citreum = experiment: agar dilution MIC, lactic acid bacteria; format: cell-based; details: brain-heart infusion agar
Lactobacillus confusus = experiment: agar dilution MIC, lactic acid bacteria; format: cell-based; details: Lactobacillus confusus, brain-heart infusion agar
[19] = tested on: Staphylococcus aureus 447; experiment: broth micro-dilution MIC; format: cell-based
Experimental: as §1

[20] = tested on: Staphylococcus aureus 489; experiment: broth micro-dilution MIC; format: cell-based
Experimental: as §1

[21] = tested on: Staphylococcus epidermidis 270; experiment: broth micro-dilution MIC; format: cell-based
Experimental: as §2

Stapylococcus aureus = experiment: mouse protection, experimentally-induced infection; format: in vivo; details: mice infected with Stapylococcus aureus, two doses
[22] = tested on: Staphylococcus aureus 491; experiment: broth micro-dilution MIC; format: cell-based
Experimental: as §1

Compound	MIC [1]	MIC [3]	MIC (Entercoccus faecium 276)	MIC [5]	MIC [6]	MIC [7]	MIC [8]	MIC [12]	MIC [13]	ED50 (Streptococcus pyogenes)	ED50 (Streptococcus pneumoniae)	mean geometric MIC, Vancomycin Resistant Strains [15]	mean geometric MIC, Vancomycin Sensitive Strains [16]	MIC (Pediococcus acidilacti)	MIC (Pediococcus pentosaceus)	MIC (Leuconostoc lactis)	MIC [17]	MIC [18]	MIC (Leuconostoc citreum)	MIC (Lactobacillus confusus)	also measured
CNC(CC(C)C)C(=O)NC1C(=O)NC(CC(N)=O)C(=O)NC2C(=O)NC3C(=O)NC(C(=O)NC(C(=O)O)c4cc(O)cc(O)c4-c4cc3ccc4O)C(OC3CC(C)(N)C(O)C(C)O3)c3ccc(c(Cl)c3)Oc3cc2cc(c3OC2OC(CO)C(O)C(O)C2OC2CC(C)(NCc3ccc(OC4CCCCC4)cc3)C(O)C(C)O2)Oc2ccc(cc2Cl)C1O (stereo not drawn) [Compound 124]	≤ 0.06 µg/mL	≤ 0.06 µg/mL	≤ 0.06 µg/mL	≤ 0.06 µg/mL	1 µg/mL (≈ 0.562 µM)	1 µg/mL (≈ 0.562 µM)	0.5 µg/mL (≈ 0.281 µM)	2 µg/mL (≈ 1.12 µM)	1 µg/mL (≈ 0.562 µM)	0.092 mg/kg/2	0.041 mg/kg/2	0.84 µg/mL	0.047 µg/mL	20 µg/mL (≈ 11.2 µM)	16 µg/mL (≈ 8.99 µM)	16 µg/mL (≈ 8.99 µM)	16 µg/mL (≈ 8.99 µM)	64 µg/mL (≈ 35.9 µM)	64 µg/mL (≈ 35.9 µM)	16 µg/mL (≈ 8.99 µM)	MIC [2]: ≤ 0.06 µg/mL; MIC [4]: 4 µg/mL (≈ 2.25 µM); MIC [9]: ≤ 0.06 µg/mL; MIC (Entercoccus faecium 180): ≤ 0.06 µg/mL; MIC (Entercoccus faecium 2041): ≤ 0.06 µg/mL; MIC [10]: 1 µg/mL (≈ 0.562 µM); MIC (Escherichia coli EC14): > 64 µg/mL; MIC [11]: 16 µg/mL (≈ 8.99 µM); MIC [14]: ≤ 0.06 µg/mL
CNC(CC(C)C)C(=O)NC1C(=O)NC(CC(N)=O)C(=O)NC2C(=O)NC3C(=O)NC(C(=O)NC(C(=O)O)c4cc(O)cc(O)c4-c4cc3ccc4O)C(OC3CC(C)(N)C(O)C(C)O3)c3ccc(c(Cl)c3)Oc3cc2cc(c3OC2OC(CO)C(O)C(O)C2OC2CC(C)(NCc3ccc(SC)cc3)C(O)C(C)O2)Oc2ccc(cc2Cl)C1O (stereo not drawn) [Compound 41]										0.082 mg/kg/2	0.087 mg/kg/2	0.84 µg/mL	0.21 µg/mL	71 µg/mL (≈ 41.1 µM)	91 µg/mL (≈ 52.6 µM)	91 µg/mL (≈ 52.6 µM)	91 µg/mL (≈ 52.6 µM)	> 128 µg/mL	> 128 µg/mL	64 µg/mL (≈ 37 µM)	
CNC(CC(C)C)C(=O)NC1C(=O)NC(CC(N)=O)C(=O)NC2C(=O)NC3C(=O)NC(C(=O)NC(C(=O)O)c4cc(O)cc(O)c4-c4cc3ccc4O)C(OC3CC(C)(N)C(O)C(C)O3)c3ccc(c(Cl)c3)Oc3cc2cc(c3OC2OC(CO)C(O)C(O)C2OC2CC(C)(NCc3ccc4c(c3)Cc3ccccc3-4)C(O)C(C)O2)Oc2ccc(cc2Cl)C1O (stereo not drawn) [Compound 32]	1 µg/mL (≈ 0.565 µM)	≤ 0.06 µg/mL	0.125 µg/mL (≈ 0.0706 µM)	≤ 0.06 µg/mL	1 µg/mL (≈ 0.565 µM)	0.5 µg/mL (≈ 0.282 µM)	0.5 µg/mL (≈ 0.282 µM)	4 µg/mL (≈ 2.26 µM)	4 µg/mL (≈ 2.26 µM)	0.034 mg/kg/2	0.039 mg/kg/2	0.50 µg/mL	0.089 µg/mL	12.1 µg/mL (≈ 6.83 µM)	16 µg/mL (≈ 9.04 µM)	16 µg/mL (≈ 9.04 µM)	16 µg/mL (≈ 9.04 µM)		64 µg/mL (≈ 36.1 µM)	16 µg/mL (≈ 9.04 µM)	MIC [4]: 1 µg/mL (≈ 0.565 µM); MIC [19]: 0.5 µg/mL (≈ 0.282 µM); MIC [20]: 1 µg/mL (≈ 0.565 µM); MIC [11]: > 64 µg/mL; MIC [21]: 1 µg/mL (≈ 0.565 µM); ED50 (Stapylococcus aureus): 0.055 mg/kg/2
CNC(CC(C)C)C(=O)NC1C(=O)NC(CC(N)=O)C(=O)NC2C(=O)NC3C(=O)NC(C(=O)NC(C(=O)O)c4cc(O)cc(O)c4-c4cc3ccc4O)C(OC3CC(C)(N)C(O)C(C)O3)c3ccc(c(Cl)c3)Oc3cc2cc(c3OC2OC(CO)C(O)C(O)C2OC2CC(C)(NCc3ccc(-c4ccccc4)cc3)C(O)C(C)O2)Oc2ccc(cc2Cl)C1O (stereo not drawn) [Compound 2, p-phenylbenzyl·A82846B]	≤ 0.06 µg/mL	≤ 0.06 µg/mL	0.5 µg/mL (≈ 0.284 µM)	≤ 0.06 µg/mL	0.5 µg/mL (≈ 0.284 µM)	1 µg/mL (≈ 0.569 µM)	≤ 0.06 µg/mL	2 µg/mL (≈ 1.14 µM)	1 µg/mL (≈ 0.569 µM)	0.014 mg/kg/2	0.025 mg/kg/2	0.044 µg/mL	0.00038 µg/mL	5.9 µg/mL (≈ 3.35 µM)	11 µg/mL (≈ 6.25 µM)	4.0 µg/mL (≈ 2.27 µM)	16 µg/mL (≈ 9.1 µM)	32 µg/mL (≈ 18.2 µM)		16 µg/mL (≈ 9.1 µM)	MIC [2]: ≤ 0.06 µg/mL; MIC [4]: ≤ 0.06 µg/mL; MIC [19]: ≤ 0.06 µg/mL; MIC [22]: ≤ 0.06 µg/mL; MIC [9]: ≤ 0.06 µg/mL; MIC (Entercoccus faecium 2041): 0.125 µg/mL (≈ 0.0711 µM); MIC [10]: ≤ 0.06 µg/mL; MIC [21]: 8 µg/mL (≈ 4.55 µM); MIC [14]: ≤ 0.06 µg/mL; ED50 (Stapylococcus aureus): 0.27 mg/kg/2
CN[C@H](CC(C)C)C(=O)N[C@H]1C(=O)N[C@@H](CC(N)=O)C(=O)N[C@H]2C(=O)N[C@H]3C(=O)N[C@H](C(=O)N[C@H](C(=O)O)c4cc(O)cc(O)c4-c4cc3ccc4O)[C@H](O[C@H]3C[C@](C)(N)[C@@H](O)[C@H](C)O3)c3ccc(c(Cl)c3)Oc3cc2cc(c3O[C@@H]2O[C@H](CO)[C@@H](O)[C@H](O)[C@H]2O[C@H]2C[C@](C)(N)[C@@H](O)[C@H](C)O2)Oc2ccc(cc2Cl)[C@H]1O [Compound A82846B, A82846B, reference compound]	0.125 µg/mL (≈ 0.0785 µM)	0.125 µg/mL (≈ 0.0785 µM)	0.125 µg/mL (≈ 0.0785 µM)	≤ .06 µg/mL	0.125 µg/mL (≈ 0.0785 µM)	0.125 µg/mL (≈ 0.0785 µM)	0.125 µg/mL (≈ 0.0785 µM)	1 µg/mL (≈ 0.628 µM)	4 µg/mL (≈ 2.51 µM)	0.12 mg/kg/2	0.18 mg/kg/2	29 µg/mL	0.22 µg/mL	141 µg/mL (≈ 88.5 µM)	> 256 µg/mL		> 256 µg/mL	> 256 µg/mL	> 256 µg/mL	> 256 µg/mL	MIC [2]: 0.125 µg/mL (≈ 0.0785 µM); MIC [20]: ≤ .06 µg/mL; MIC (Entercoccus faecium 180): 8 µg/mL (≈ 5.02 µM); ED50 (Stapylococcus aureus): 0.25 mg/kg/2
